Where two headings read alike, the source gives them in different places.
Test system: adult brown dog ticks (Rhipicephalus sanguineus)
Test: Tick DMSO contact assay, Compound 1 with reduced dosages of amitraz, Example 16
Assay type: in vivo
Protocol: Scintillation vials were treated with commercial and experimental compounds using the same procedure described in Example 12 above. The treated vials were used to determine the contact toxicity of compounds against adult brown dog ticks (Rhipicephalus sanguineus). The ticks were supplied by Ecto Services Inc. Henderson, N.C.
Unfed adult ticks were released into a metal pan and 10 living ticks were aspirated into each vial. […] Two replicates were tested for each treatment and the results were averaged. Ticks were stimulated by gently exhaling in the vials. Within the same time period, the addition of amitraz to an equal dosage of compound 1 increased mean mortality.

[1] = 4 h, read-out: 4 hour % Mortality Rep 1
[2] = 4 h, read-out: 4 hour % Mortality Rep 2
[3] = 4 h, read-out: 4 hour Avg. % Mortality
[4] = 24 h, read-out: 24 hour % Mortality Rep 1
[5] = 24 h, read-out: 24 hour % Mortality Rep 2
[6] = 24 h, read-out: 24 hour Avg. % Mortality
[7] = 48 h, read-out: 48 hour % Mortality Rep 1
[8] = 48 h, read-out: 48 hour % Mortality Rep 2
[9] = 48 h, read-out: 48 hour Avg. % Mortality

Cc1ccc(/N=C/N(C)/C=N/c2ccc(C)cc2C)c(C)c1 [Amitraz, amitraz]
0%: mortality at 3.13 ppm [1] | mortality at 6.25 ppm [1] | mortality at 12.5 ppm [1] | mortality at 3.13 ppm [2] | mortality at 6.25 ppm [2] | mortality at 12.5 ppm [2] | mortality at 3.13 ppm [3] | mortality at 6.25 ppm [3] | mortality at 12.5 ppm [3] | mortality at 3.13 ppm [4] | mortality at 6.25 ppm [4] | mortality at 12.5 ppm [4] | mortality at 3.13 ppm [5] | mortality at 6.25 ppm [5] | mortality at 12.5 ppm [5] | mortality at 3.13 ppm [6] | mortality at 6.25 ppm [6] | mortality at 12.5 ppm [6] | mortality at 3.13 ppm [7] | mortality at 6.25 ppm [7] | mortality at 12.5 ppm [7] | mortality at 3.13 ppm [8] | mortality at 6.25 ppm [8] | mortality at 12.5 ppm [8] | mortality at 3.13 ppm [9] | mortality at 6.25 ppm [9] | mortality at 12.5 ppm [9]
